We go through 14 compounds from patent US11866450B2, “Modulators of Cystic Fibrosis Transmembrane Conductance regulator, pharmaceutical compositions, methods of treatment, and process for making the modulators” (priority 2018, dated 2024).

The target of this experiment is CFTR-mediated chloride transport (Homo sapiens, UniProt P13569). The experiment is classed as cell-based. Particulars: enteroid cells incubated with test compound 18-24 hours, acute 10 μM forskolin and 300 nM Compound III; for Max. Activity: % of chloride transport with 3 μM Compound A, 3 μM Compound II and 300 nM acute Compound III triple combination control. In a few lines: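 Membrane-potential fluorescence AUC over 15 min quantified CFTR chloride transport after acute forskolin (10 μM), IBMX (100 μM) and Compound III (300 nM) in chloride-free buffer. Human enteroid cells were pretreated with compound for 18–24 h; % Activity is relative to 3 μM Compound A + 3 μM Compound II + 300 nM Compound III.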

pEC50: −log10 of the molar value.

Sequence of CFTR-mediated chloride transport (P13569 whole entry, looked up): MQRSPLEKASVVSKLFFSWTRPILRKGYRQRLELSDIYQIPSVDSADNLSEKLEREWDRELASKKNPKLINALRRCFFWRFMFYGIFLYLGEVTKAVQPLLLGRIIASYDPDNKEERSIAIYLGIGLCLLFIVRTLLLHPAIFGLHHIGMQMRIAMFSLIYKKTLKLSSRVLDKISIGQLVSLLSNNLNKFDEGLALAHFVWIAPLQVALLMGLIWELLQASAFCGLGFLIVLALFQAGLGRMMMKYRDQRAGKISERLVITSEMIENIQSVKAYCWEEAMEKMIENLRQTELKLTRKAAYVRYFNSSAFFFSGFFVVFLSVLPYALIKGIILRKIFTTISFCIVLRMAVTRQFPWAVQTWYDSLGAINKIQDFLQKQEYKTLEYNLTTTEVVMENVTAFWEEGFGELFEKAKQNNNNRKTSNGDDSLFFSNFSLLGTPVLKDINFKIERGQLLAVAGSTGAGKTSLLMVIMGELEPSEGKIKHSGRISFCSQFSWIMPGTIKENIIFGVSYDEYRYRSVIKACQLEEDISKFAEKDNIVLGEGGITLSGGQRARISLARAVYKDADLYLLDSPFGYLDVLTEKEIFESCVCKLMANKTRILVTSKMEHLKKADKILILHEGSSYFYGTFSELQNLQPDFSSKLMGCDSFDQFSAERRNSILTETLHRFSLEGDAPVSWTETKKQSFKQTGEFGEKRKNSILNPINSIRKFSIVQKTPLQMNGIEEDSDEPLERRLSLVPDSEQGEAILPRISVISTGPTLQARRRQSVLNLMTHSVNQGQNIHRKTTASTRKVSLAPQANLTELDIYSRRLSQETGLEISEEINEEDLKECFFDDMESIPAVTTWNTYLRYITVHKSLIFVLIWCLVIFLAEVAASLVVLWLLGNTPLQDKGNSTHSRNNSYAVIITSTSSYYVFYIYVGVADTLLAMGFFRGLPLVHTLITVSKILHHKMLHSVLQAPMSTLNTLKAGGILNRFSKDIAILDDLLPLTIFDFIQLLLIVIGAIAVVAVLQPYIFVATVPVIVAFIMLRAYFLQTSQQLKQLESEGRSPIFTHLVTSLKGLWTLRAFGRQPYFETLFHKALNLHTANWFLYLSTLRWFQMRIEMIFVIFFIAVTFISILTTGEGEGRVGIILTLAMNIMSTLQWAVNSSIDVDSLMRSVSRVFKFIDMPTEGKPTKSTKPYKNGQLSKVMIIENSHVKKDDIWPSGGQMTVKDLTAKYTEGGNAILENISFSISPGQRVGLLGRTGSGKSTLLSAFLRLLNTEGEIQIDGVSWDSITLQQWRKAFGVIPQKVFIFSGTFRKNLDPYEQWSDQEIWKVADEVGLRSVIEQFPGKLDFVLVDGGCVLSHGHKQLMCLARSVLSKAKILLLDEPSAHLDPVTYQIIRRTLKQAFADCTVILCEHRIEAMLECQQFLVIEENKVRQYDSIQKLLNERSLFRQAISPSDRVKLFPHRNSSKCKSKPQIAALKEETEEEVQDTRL

The term pEC50 denotes the EC50 on a negative log10 scale, so that one unit is a factor of ten. Consider `CC1(C)CCC2CNc3cccc(n3)S(=O)(=O)NC(=O)c3ccc(-n4ccc(OCCC5(C(F)(F)F)CC5)n4)nc3N21` (stereo not shown) [Compound 41, 7,7-dimethyl-11-(3-{2-[1-(trifluoromethyl)cyclopropyl]ethoxy}-1H-pyrazol-1-yl)-17λ^6-thia-2,8,10,16,22-pentaazatetracyclo[16.3.1.04,8.09,14]docosa-1(22),9,11,13,18,20-hexaene-15,17,17-trione], for which the pEC50 is less than 5.52 and the “Max. Activity” value is recorded as “+ (+ is <30%)”.
For the compound `CC1(C)CC2CCCNc3cccc(n3)S(=O)(=O)NC(=O)c3ccc(-n4ccc(OCC5C(C)(C)C5(C)C)n4)nc3N1C2` (stereo not shown) [Compound 42, 12,12-dimethyl-8-{3-[(2,2,3,3-tetramethylcyclopropyl)methoxy]-1H-pyrazol-1-yl}-2λ^6-thia-3,9,11,18,23-pentaazatetracyclo[17.3.1.111,14.05,10]tetracosa-1(22),5,7,9,19(23),20-hexaene-2,2,4-trione], the pEC50 is more than 6.00 and the “Max. Activity” value is on record as “+++ (+++ is >60%)”.
Turning to `CC1(C)C[C@H]2CCCNc3cccc(n3)S(=O)(=O)NC(=O)c3ccc(-n4ccc(OCCC(C5CC5)C5CC5)n4)nc3N1C2` [Compound 65, (14R)-8-[3-(3,3-dicyclopropylpropoxy)-1H-pyrazol-1-yl]-12,12-dimethyl-2λ^6-thia-3,9,11,18,23-pentaazatetracyclo[17.3.1.111,14.05,10]tetracosa-1(22),5,7,9,19(23),20-hexaene-2,2,4-trione], the pEC50 is more than 6.00 and the “Max. Activity” value was “++ (++ is 30-60%)”.
The matching figures for `CC(C)(C)CCC1CCN(c2ccc3c(n2)N2C[C@@H](CCCNc4cccc(n4)S(=O)(=O)NC3=O)CC2(C)C)C1=O` (stereo partly drawn) [Compound 79, (14S)-8-[3-(3,3-dimethylbutyl)-2-oxopyrrolidin-1-yl]-12,12-dimethyl-2λ^6-thia-3,9,11,18,23-pentaazatetracyclo[17.3.1.111,14.05,10]tetracosa-1(23),5,7,9,19,21-hexaene-2,2,4-trione]: more than 6.00 and “++ (++ is 30-60%)”.
Turning to `CC1(C)C[C@H]2CCCn3ccc(n3)S(=O)(=O)NC(=O)c3ccc(-n4ccc(OCCC5(C(F)(F)F)CC5)n4)nc3N1C2` [Compound 84, (18R)-20,20-Dimethyl-4-(3-{2-[1-(trifluoromethyl)cyclopropyl]ethoxy}-1H-pyrazol-1-yl)-10λ^6-thia-1,3,9,14,22-pentaazatetracyclo[16.2.1.111,14.02,7]docosa-2,4,6,11(22),12-pentaene-8,10,10-trione], the negative-log EC50 (pEC50) was less than 5.52 and the “Max. Activity” value was “+ (+ is <30%)”.
The matching figures for `CC1(C)C[C@@H]2CCCn3ccc(n3)S(=O)(=O)NC(=O)c3ccc(-n4ccc(OCCC5(C(F)(F)F)CC5)n4)nc3N1C2` [Compound 85, (18S)-20,20-dimethyl-4-(3-{2-[1-(trifluoromethyl)cyclopropyl]ethoxy}-1H-pyrazol-1-yl)-10λ^6-thia-1,3,9,14,22-pentaazatetracyclo[16.2.1.111,14.02,7]docosa-2,4,6,11(22),12-pentaene-8,10,10-trione]: more than 6.00 and “+++ (+++ is >60%)”.
On the same counts, the results for `CC1CN(c2ccc3c(n2)N2C[C@@H](CCCNc4cccc(n4)S(=O)(=O)NC3=O)CC2(C)C)C(=O)C1CCC(C)(C)C` (stereo partly drawn) [Compound 97, (14S)-8-[3-(3,3-dimethylbutyl)-4-methyl-2-oxopyrrolidin-1-yl]-12,12-dimethyl-2λ^6-thia-3,9,11,18,23-pentaazatetracyclo[17.3.1.111,14.05,10]tetracosa-1(22),5,7,9,19(23),20-hexaene-2,2,4-trione] are more than 6.00 and “+++ (+++ is >60%)”.
On the same counts, the results for `CC(C)(C)CCC1C(=O)N(c2ccc3c(n2)N2C[C@@H](CCCNc4cccc(n4)S(=O)(=O)NC3=O)CC2(C)C)CC1(C)C` (stereo partly drawn) [Compound 98, (14S)-8-[3-(3,3-Dimethylbutyl)-4,4-dimethyl-2-oxopyrrolidin-1-yl]-12,12-dimethyl-2λ^6-thia-3,9,11,18,23-pentaazatetracyclo[17.3.1.111,14.05,10]tetracosa-1(22),5,7,9,19(23),20-hexaene-2,2,4-trione] are more than 6.00 and “++ (++ is 30-60%)”.
`CC1(CC2CCN(c3ccc4c(n3)N3C[C@@H](CCCNc5cccc(n5)S(=O)(=O)NC4=O)CC3(C)C)C2=O)CCCCC1` (stereo partly drawn) [Compound 101, (14S)-12,12-dimethyl-8-{3-[(1-methylcyclohexyl)methyl]-2-oxopyrrolidin-1-yl}-2λ^6-thia-3,9,11,18,23-pentaazatetracyclo[17.3.1.111,14.05,10]tetracosa-1(22),5,7,9,19(23),20-hexaene-2,2,4-trione]: the pEC50 was more than 6.00 and the “Max. Activity” value is on record as “++ (++ is 30-60%)”.
On the same counts, the results for `CC(C)(C)CCCC1CCN(c2ccc3c(n2)N2C[C@@H](CCCNc4cccc(n4)S(=O)(=O)NC3=O)CC2(C)C)C1=O` (stereo partly drawn) [Compound 102, (14S)-8-[3-(4,4-Dimethylpentyl)-2-oxopyrrolidin-1-yl]-12,12-dimethyl-2λ^6-thia-3,9,11,18,23-pentaazatetracyclo[17.3.1.111,14.05,10]tetracosa-1(22),5,7,9,19(23),20-hexaene-2,2,4-trione] are more than 6.00 and “+++ (+++ is >60%)”.
The matching figures for `CC(C)(C)CCN1CCN(c2ccc3c(n2)N2C[C@@H](CCCNc4cccc(n4)S(=O)(=O)NC3=O)CC2(C)C)C1=O` [Compound 128, (14S)-8-[3-(3,3-dimethylbutyl)-2-oxoimidazolidin-1-yl]-12,12-dimethyl-2λ^6-thia-3,9,11,18,23-pentaazatetracyclo[17.3.1.111,14.05,10]tetracosa-1(22),5,7,9,19(23),20-hexaene-2,2,4-trione]: more than 6.00 and “+++ (+++ is >60%)”.
On the same counts, the results for `CN1CCCCC2CN(c3nc(-n4ccc(OCCC5(C(F)(F)F)CC5)n4)ccc3C(=O)NS(=O)(=O)c3ccc1nc3)C(C)(C)C2` (stereo not shown) [Compound 132, 12,12,19-trimethyl-8-(3-{2-[1-(trifluoromethyl)cyclopropyl]ethoxy}-1H-pyrazol-1-yl)-2λ^6-thia-3,9,11,19,21-pentaazatetracyclo[18.2.2.111,14.05,10]pentacosa-1(23),5,7,9,20(24),21-hexaene-2,2,4-trione] are more than 6.00 and “++ (++ is 30-60%)”.
Regarding `CC1(C)C[C@@H]2CCCNc3cccc(n3)S(=O)(=O)NC(=O)c3ccc(N4CCC(OCCC5(C(F)(F)F)CC5)C4=O)nc3N1C2` (stereo partly drawn) [Compound 158, (14S)-12,12-Dimethyl-8-(2-oxo-3-{2-[1-(trifluoromethyl)cyclopropyl]ethoxy}pyrrolidin-1-yl)-2λ^6-thia-3,9,11,18,23-pentaazatetracyclo[17.3.1.111,14.05,10]tetracosa-1(22),5,7,9,19(23),20-hexaene-2,2,4-trione], the pEC50 is more than 6.00 and the “Max. Activity” value is listed as “+++ (+++ is >60%)”.
The matching figures for `CC(C)(C)CCN1CCN(c2ccc3c(n2)N2CC(CCCn4ccc(n4)S(=O)(=O)NC3=O)CC2(C)C)C1=O` (stereo not shown) [Compound 168, 4-[3-(3,3-dimethylbutyl)-2-oxoimidazolidin-1-yl]-20,20-dimethyl-10λ^6-thia-1,3,9,14,22-pentaazatetracyclo[16.2.1.111,14.02,7]docosa-2,4,6,11(22),12-pentaene-8,10,10-trione]: less than 5.52 and “+ (+ is <30%)”.
